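Five compound concentrations were applied to cells in 96-well plates for 48 hours; endpoints were derived by simple linear interpolation of the resulting dose-response curve. The concentration for 50% growth inhibition is given as GI50.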 Calls of active or inactive are those of the source. Cut-off read from the data, not from the text of the source: active = GI50 up to about 1.1 µM and inactive = higher.
What was measured:
Assay in all cases: growth of human tumour cells (NCI), 48 h
UACC-257 = tested on: UACC-257
PC-3 = tested on: PC-3
ACHN = tested on: ACHN
HT-29 = tested on: HT-29
HL-60 = tested on: HL-60
OVCAR-5 = tested on: OVCAR-5
NCI-H460 = tested on: NCI-H460
UACC-62 = tested on: UACC-62
NCI-H226 = tested on: NCI-H226
HCC 2998 = tested on: HCC 2998
U-251 = tested on: U-251
NCI/ADR-RES = tested on: NCI/ADR-RES
COLO 205 = tested on: COLO 205
SR = tested on: SR
MOLT-4 = tested on: MOLT-4
NCI-H23 = tested on: NCI-H23
HOP-92 = tested on: HOP-92
SK-MEL-5 = tested on: SK-MEL-5
SF-268 = tested on: SF-268
DU-145 = tested on: DU-145
SN12C = tested on: SN12C
MDA-MB-231 = tested on: MDA-MB-231
OVCAR-8 = tested on: OVCAR-8
BT-549 = tested on: BT-549
SNB-19 = tested on: SNB-19
HCT-15 = tested on: HCT-15
SW-620 = tested on: SW-620
RPMI-8226 = tested on: RPMI-8226
HOP-62 = tested on: HOP-62
K562 = tested on: K562
A498 = tested on: A498
M14 = tested on: M14
SK-MEL-28 = tested on: SK-MEL-28
IGROV-1 = tested on: IGROV-1
KM12 = tested on: KM12
LOX IMVI = tested on: LOX IMVI
Hs-578T = tested on: Hs-578T
NCI-H522 = tested on: NCI-H522
SNB-75 = tested on: SNB-75
786-0 = tested on: 786-0
EKVX = tested on: EKVX
MDA-MB-435 = tested on: MDA-MB-435
SF-295 = tested on: SF-295
A549 = tested on: A549
CAKI-1 = tested on: CAKI-1
OVCAR-3 = tested on: OVCAR-3
T47D = tested on: T47D
HCT-116 = tested on: HCT-116
MDA-N = tested on: MDA-N
OVCAR-4 = tested on: OVCAR-4
SK-MEL-2 = tested on: SK-MEL-2
MCF7 = tested on: MCF7
SF-539 = tested on: SF-539
TK-10 = tested on: TK-10
UO-31 = tested on: UO-31
SK-OV-3 = tested on: SK-OV-3
CCRF-CEM = tested on: CCRF-CEM

Measured: GI50

CCC(C)C1(O)OC2CC3(C)OC(=CC3=O)/C(C)=C\C3OC(=O)C1(C)C32 (configuration not stated)
inactive: UACC-257 7.01 µM | PC-3 37.2 µM | ACHN 9.14 µM | HT-29 14.2 µM | HL-60 3.12 µM | OVCAR-5 28.3 µM | NCI-H460 14.2 µM | UACC-62 14.3 µM | NCI-H226 25.9 µM | HCC 2998 15.2 µM | U-251 27.5 µM | NCI/ADR-RES 17.2 µM | COLO 205 8.93 µM | SR 5 µM | MOLT-4 12.3 µM | NCI-H23 5.53 µM | HOP-92 8.75 µM | SK-MEL-5 10.5 µM | SF-268 13.9 µM | DU-145 4.68 µM | SN12C 11.8 µM | MDA-MB-231 19.1 µM | OVCAR-8 16 µM | BT-549 3.57 µM | SNB-19 33.7 µM | SW-620 3.37 µM | RPMI-8226 7.1 µM | HOP-62 22.8 µM | K562 7.6 µM | A498 25.2 µM | M14 21.1 µM | SK-MEL-28 14.3 µM | IGROV-1 18.8 µM | KM12 10.6 µM | LOX IMVI 14.7 µM | Hs-578T 30.5 µM | NCI-H522 3.92 µM | SNB-75 37.2 µM | 786-0 16.6 µM | EKVX 12.7 µM | MDA-MB-435 11.9 µM | SF-295 20.5 µM | A549 24.8 µM | CAKI-1 14.4 µM | OVCAR-3 10.4 µM | T47D 15 µM | HCT-116 6.47 µM | MDA-N 1.73 µM | OVCAR-4 42.5 µM | SK-MEL-2 21.3 µM | MCF7 9.77 µM | SF-539 22.3 µM | TK-10 21 µM | UO-31 17.8 µM | SK-OV-3 37.6 µM | CCRF-CEM 4.83 µM
3.3 µM: HCT-15

Source: ChEMBL document CHEMBL1201862, “PubChem BioAssay data set” (2004)
